27 compounds from US8530650B2, “2, 5-diamino-substituted pyrido [4, 3-D] pyrimidines as autotaxin inhibitors against cancer” (MERCK PATENT GmbH, priority 2008, dated 2013) can be followed below.

Some results are limits rather than exact numbers.

The term IC50 denotes the concentration that inhibits the measured activity by half.

For this assay, the target named is T1, recombinant autotaxin (Homo sapiens, UniProt Q13822).
T1 construct: made in house; host or cells: Hi5 insect cells (baculovirus)
Nature of the assay: Autotaxin assay (Amplex Red, LPC substrate). The settings on record: 75 μM LPC, Amplex Red fluorescence, ten 1:3 dilutions starting at 30 μM. The format is biochemical. As to the method: Autotaxin activity is measured indirectly by means of Amplex Red Reagent. In this course, Amplex Red is measured as fluorogenic indicator for generated H2O2. Autotaxin converts substrate lysophosphatidylcholine (LPC) to phosphocholine and lysophosphatidylic acid (LPA). After the conversion phosphocholine is reacted with alkaline phosphatase to obtain inorganic phosphate and choline. During the next step choline is oxidized with choline oxidase to yield betaine, whereby H2O2 is generated. H2O2 reacts with Amplex Red Reagent in the presence of peroxidase (Horseradish peroxidase) in an 1:1 stochiometry and yields highly fluorescent resorufin. The generated fluorescence is measured in a reaction-dependent kinetic mode in order to enable subtraction of fluorescence signals of possible other fluorescent compounds that are not part of the reaction from total measured fluorescence.
1.5 μl of a standard solution or of the compounds of the invention are dissolved in 20 mM Hepes pH 7.2 with maximally 7.7% DMSO in individual concentrations. The resulting solution is pre-incubated together with 10 μl (16 ng) of highly purified recombinant autotaxin in a black 384-hole microtiter plate for 30 min at 22° C. Thereafter, the reaction is started through the addition of 5 μL-a-lysophosphatidylcholine (LPC), whereby the final concentration of LPC is 75 μM. The mixture is incubated for 90 min. at 37° C. After the incubation Amplex Red Reagent, peroxidase (Horseradish peroxidase) and choline oxidase are added. The fluorescence is immediately measured at a wavelength of 612 nm with an excitation wavelength of 485 nm in a “Tecan Ultra multimode” fluorescence reader. The activity of autotaxin is indirectly calculated via the amount of detected generated H2O2.
For IC50 analysis, ten serial 1:3 dilutions starting at 30 μM for each compound were run in duplicates.
IC50 values were calculated on normalized data. For normalization, control wells were added to each assay plate and the signal of uninhibited control wells was set to 100%, whereas the signal inhibited by 500 μM C14 LPA, (Avanti Polar Lipids, Cat# 857120P) was set to 0%. Curves were fitted and IC50 values calculated by the following model using proprietary analysis software: Y=Bottom+(100−Bottom)/(1+10^((LogIC50−X)*HillSlope))
Where X is the logarithm of concentration. Y is the response; Y starts at Bottom and goes to Top with a sigmoid shape.
Protein: Recombinant autotaxin (baculoviral Hi5 expression)
Substrate: L-a-lysophosphatidyl choline (chicken egg); Avanti Polar Lipids #830071 P
Standard: C14 LPA, Avanti Polar Lipids, Cat# 857120P
Detection Reagent Amplex Red Reagent; Invitrogen #A12222; dissolved in 1.923 ml of DMSO peroxidase Type VI-A (horseradish), Sigma #P6782; dissolved in 7.45 ml of test buffer, Choline Oxidase; Sigma #C5896; dissolved in 2.47 ml test buffer
Detection Reagent Mix: 1:100 dilution of Amplex Red Regent in test buffer
Test buffer: 200 mM Tris-HCl, Merck, Cat # 1.08219, pH 7.9; 0.1% BSA, lipid free, Roche Cat#775835
Take `CN(C)CCNC(=O)C1CCN(c2nccc3nc(NCc4ccccc4Cl)ncc23)CC1` [Compound 64, 1-[2-(2-Chloro-benzylamino)-pyrido[4,3-d]pyrimidin-5-yl]-piperidine-4-carboxylic acid (2-dimethylamino-ethyl)-amide]: the IC50 was under 10 µM.
With `O=C(NCc1ccco1)C1CCN(c2nccc3nc(NCc4ccccc4Cl)ncc23)CC1` [Compound 65, 1-[2-(2-Chloro-benzylamino)-pyrido[4,3-d]pyrimidin-5-yl]-piperidine-4-carboxylic acid (furan-2-ylmethyl)-amide] the figure was under 5 µM.
On to `O=C(C1CCN(c2nccc3nc(NCc4ccccc4Cl)ncc23)CC1)N1CCCC1` [Compound 66, {1-[2-(2-Chloro-benzylamino)-pyrido[4,3-d]pyrimidin-5-yl]-piperidin-4-yl}-pyrrolidin-1-yl-methanone], for which the half-maximal inhibitory concentration (IC50) was under 5 µM.
With `CC(C)NC(=O)C1CCN(c2nccc3nc(NCc4ccccc4Cl)ncc23)CC1` [Compound 67, 1-[2-(2-Chloro-benzylamino)-pyrido[4,3-d]pyrimidin-5-yl]-piperidine-4-carboxylic acid isopropylamide] the figure was under 5 µM.
For `CCCNC(=O)C1CCN(c2nccc3nc(NCc4ccccc4Cl)ncc23)CC1` [Compound 68, 1-[2-(2-Chloro-benzylamino)-pyrido[4,3-d]pyrimidin-5-yl]-piperidine-4-carboxylic acid propylamide], the IC50 was under 10 µM.
The value for `O=C(NC1CC1)C1CCN(c2nccc3nc(NCc4ccccc4Cl)ncc23)CC1` [Compound 69, 1-[2-(2-Chloro-benzylamino)-pyrido[4,3-d]pyrimidin-5-yl]-piperidine-4-carboxylic acid cyclopropylamide] was under 10 µM.
As for `COCCNC(=O)C1CCN(c2nccc3nc(NCc4ccccc4Cl)ncc23)CC1` [Compound 70, 1-[2-(2-Chloro-benzylamino)-pyrido[4,3-d]pyrimidin-5-yl]-piperidine-4-carboxylic acid (2-methoxy-ethyl)-amide], the IC50 is under 5 µM.
Consider `C=CCNC(=O)C1CCN(c2nccc3nc(NCc4ccccc4Cl)ncc23)CC1` [Compound 71, 1-[2-(2-Chloro-benzylamino)-pyrido[4,3-d]pyrimidin-5-yl]-piperidine-4-carboxylic acid allylamide], for which the IC50 was under 30 µM.
As to `CCN1CCN(C(=O)C2CCN(c3nccc4nc(NCc5ccccc5Cl)ncc34)CC2)CC1` [Compound 72, {1-[2-(2-Chloro-benzylamino)-pyrido[4,3-d]pyrimidin-5-yl]-piperidin-4-yl}-(4-ethyl-piperazin-1-yl)-methanone], the IC50 was under 5 µM.
Regarding `COCCCNC(=O)C1CCN(c2nccc3nc(NCc4ccccc4Cl)ncc23)CC1` [Compound 73, 1-[2-(2-Chloro-benzylamino)-pyrido[4,3-d]pyrimidin-5-yl]-piperidine-4-carboxylic acid (3-methoxy-propyl)-amide], the IC50 was under 5 µM.
Take `COc1ccccc1CNc1ncc2c(N3CCC(C(=O)NCc4ccco4)CC3)nccc2n1` [Compound 74, 1-[2-(2-Methoxy-benzylamino)-pyrido[4,3-d]pyrimidin-5-yl]-piperidine-4-carboxylic acid (furan-2-ylmethyl)-amide]: the IC50 is under 30 µM.
Consider `COCCNC(=O)C1CCN(c2nccc3nc(NCc4ccccc4OC)ncc23)CC1` [Compound 75, 1-[2-(2-Methoxy-benzylamino)-pyrido[4,3-d]pyrimidin-5-yl]-piperidine-4-carboxylic acid (2-methoxy-ethyl)-amide], for which the IC50 is under 30 µM.
As to `COc1ccccc1CNc1ncc2c(N3CCC(C(=O)N4CCN(c5ccccn5)CC4)CC3)nccc2n1` [Compound 76, {1-[2-(2-Methoxy-benzylamino)-pyrido[4,3-d]pyrimidin-5-yl]-piperidin-4-yl}-(4-pyridin-2-yl-piperazin-1-yl)-methanone], the IC50 is under 30 µM.
As for `COc1ccccc1CNc1ncc2c(N3CCC(C(=O)Nc4cc(C)on4)CC3)nccc2n1` [Compound 77, 1-[2-(2-Methoxy-benzylamino)-pyrido[4,3-d]pyrimidin-5-yl]-piperidine-4-carboxylic acid (5-methyl-isoxazol-3-yl)-amide], the IC50 was under 30 µM.
Turning to `O=C(Nc1cccnc1)C1CCN(c2nccc3nc(NCc4ccc(Cl)cc4)ncc23)CC1` [Compound 78, 1-[2-(4-Chloro-benzylamino)-pyrido[4,3-d]pyrimidin-5-yl]-piperidine-4-carboxylic acid pyridin-3-ylamide], the IC50 is under 5 µM.
Regarding `O=C(NCc1ccco1)C1CCN(c2nccc3nc(NCc4ccc(Cl)cc4)ncc23)CC1` [Compound 79, 1-[2-(4-Chloro-benzylamino)-pyrido[4,3-d]pyrimidin-5-yl]-piperidine-4-carboxylic acid (furan-2-ylmethyl)-amide], the IC50 was under 30 µM.
Regarding `O=C(C1CCN(c2nccc3nc(NCc4ccc(Cl)cc4)ncc23)CC1)N1CCCC1` [Compound 80, {1-[2-(4-Chloro-benzylamino)-pyrido[4,3-d]pyrimidin-5-yl]-piperidin-4-yl}-pyrrolidin-1-yl-methanone], the IC50 is under 5 µM.
On to `O=C(NCc1cccnc1)C1CCCN(c2nccc3nc(NCc4ccccc4Cl)ncc23)C1` (stereo not drawn) [Compound 81, 1-[2-(2-Chloro-benzylamino)-pyrido[4,3-d]pyrimidin-5-yl]-piperidine-3-carboxylic acid (pyridin-3-ylmethyl)-amide], for which the IC50 was under 5 µM.
Take `O=C(Nc1cccnc1)C1CCCN(c2nccc3nc(NCc4ccccc4Cl)ncc23)C1` (stereo not drawn) [Compound 82, 1-[2-(2-Chloro-benzylamino)-pyrido[4,3-d]pyrimidin-5-yl]-piperidine-3-carboxylic acid pyridin-3-ylamide]: the IC50 is under 5 µM.
As to `O=C(NCc1ccco1)C1CCCN(c2nccc3nc(NCc4ccccc4Cl)ncc23)C1` (stereo not drawn) [Compound 83, 1-[2-(2-Chloro-benzylamino)-pyrido[4,3-d]pyrimidin-5-yl]-piperidine-3-carboxylic acid (furan-2-ylmethyl)-amide], the IC50 is under 30 µM.
With `CC(C)NC(=O)C1CCCN(c2nccc3nc(NCc4ccccc4Cl)ncc23)C1` (stereo not drawn) [Compound 84, 1-[2-(2-Chloro-benzylamino)-pyrido[4,3-d]pyrimidin-5-yl]-piperidine-3-carboxylic acid isopropylamide] the figure was under 5 µM; with `CCCNC(=O)C1CCCN(c2nccc3nc(NCc4ccccc4Cl)ncc23)C1` (stereo not drawn) [Compound 85, 1-[2-(2-Chloro-benzylamino)-pyrido[4,3-d]pyrimidin-5-yl]-piperidine-3-carboxylic acid propylamide], under 30 µM.
As to `O=C(NC1CC1)C1CCCN(c2nccc3nc(NCc4ccccc4Cl)ncc23)C1` (stereo not drawn) [Compound 86, 1-[2-(2-Chloro-benzylamino)-pyrido[4,3-d]pyrimidin-5-yl]-piperidine-3-carboxylic acid cyclopropylamide], the IC50 is under 5 µM.
As for `Cc1cc(NC(=O)C2CCCN(c3nccc4nc(NCc5ccccc5Cl)ncc34)C2)no1` (stereo not drawn) [Compound 87, 1-[2-(2-Chloro-benzylamino)-pyrido[4,3-d]pyrimidin-5-yl]-piperidine-3-carboxylic acid (5-methyl-isoxazol-3-yl)-amide], the IC50 was under 30 µM.
On to `CCOCCCNC(=O)C1CCCN(c2nccc3nc(NCc4ccccc4Cl)ncc23)C1` (stereo not drawn) [Compound 88, 1-[2-(2-Chloro-benzylamino)-pyrido[4,3-d]pyrimidin-5-yl]-piperidine-3-carboxylic acid (3-ethoxy-propyl)-amide], for which the IC50 was under 10 µM.
Turning to `CCN1CCN(C(=O)C2CCCN(c3nccc4nc(NCc5ccccc5Cl)ncc34)C2)CC1` (stereo not drawn) [Compound 89, {1-[2-(2-Chloro-benzylamino)-pyrido[4,3-d]pyrimidin-5-yl]-piperidin-3-yl}-(4-ethyl-piperazin-1-yl)-methanone], the IC50 is under 5 µM.
The value for `COCCCNC(=O)C1CCCN(c2nccc3nc(NCc4ccccc4Cl)ncc23)C1` (stereo not drawn) [Compound 90, 1-[2-(2-Chloro-benzylamino)-pyrido[4,3-d]pyrimidin-5-yl]-piperidine-3-carboxylic acid (3-methoxy-propyl)-amide] was under 30 µM.
